Measured values reported in patent US8772286B2, “MK2 inhibitors” (Merck Sharp & Dohme B.V., priority 2009, dated 2014).
Values after ≈ are worked out from the molar mass of the structure shown. Where two headings read alike, the source gives them in different places.

What was measured:
MK2 enzyme = biological target: T1, MK2 enzyme (Homo sapiens, UniProt P49137); test: MK2 enzyme activity, IMAP fluorescence polarization assay; assay type: biochemical
T1 construct: MK2 enzyme (active enzyme (peptide 46-end (Millipore))); purchased Millipore
T1 sequence (P49137 46-400 limits assumed): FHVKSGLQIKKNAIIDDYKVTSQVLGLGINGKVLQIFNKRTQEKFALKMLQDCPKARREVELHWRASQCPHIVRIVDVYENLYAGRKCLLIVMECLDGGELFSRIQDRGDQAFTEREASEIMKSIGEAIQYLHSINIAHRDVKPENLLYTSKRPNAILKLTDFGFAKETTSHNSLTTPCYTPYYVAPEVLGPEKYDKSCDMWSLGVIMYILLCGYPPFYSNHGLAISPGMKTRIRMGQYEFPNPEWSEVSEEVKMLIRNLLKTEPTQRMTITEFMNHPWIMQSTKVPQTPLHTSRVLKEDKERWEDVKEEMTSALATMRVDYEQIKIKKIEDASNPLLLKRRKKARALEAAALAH
From the text: In another assay the MK2 kinase activity can be determined by using an IMAP assay (Immobilized Metal Assay for Phosphochemicals—based coupled assay). IMAP is a homogeneous fluorescence polarization (FP) assay based on affinity capture of phosphorylated peptide substrates. IMAP uses fluorescein-labeled peptide substrates that, upon phosphorylation by a protein kinase, bind to so called IMAP nanoparticles, which are derivatized with trivalent metal complexes. […] In such an assay, MK2 phosphorylates a fluorescein-labeled peptide substrate (see example 14).
MK2 enzyme activity is measured using the IMAP (immobilized metal ion affinity-based fluorescence polarization) assay as outlined below.
The enzyme is diluted to 100 U/mL the day before use in KR buffer (10 mM Tris-HCl, 10 mM MgCl2, 0.01% Tween-20, 0.05% NaN3, 2 mM DTT, pH 7.2) and stored overnight at −20° C.
The dilutions in DMSO are then diluted 50-fold in KR-buffer of which 5 μl is used in the assay, leading to a final compound concentration range in the assay from 10 μM to 0.316 nM.
After 60 min incubation at room temperature in the dark the FP signal is read. Fluorescence at 535 nm is measured using parallel and perpendicular filters to determine differences in rotation due to binding of the phosphorylated substrate peptide to the beads. Values are calculated as percentage of the difference in readout (ΔmPi) of the controls with and without ATP. EC50 values are determined by curve fitting of the experimental results using Activity Base.

[1] = Solubility determination of MK2 inhibitors (kinetic aqueous solubility, UPLC); assay type: physicochemical; settings: aqueous buffer (system solution from pION inc.), 22 °C, pH 7.4, aqueous buffer, kinetic from dmso stock
Procedure: The solubility can be determined using the Automated Kinetic Aqueous Solubility (AKASol) method, which is an HPLC-UV based method. The method is derived from the classical saturated shake-flask solubility method which has been adapted to the 96-well microtitre plate format, allowing the use of DMSO stock solutions. The solubility is determined by measuring the amount of compound in a saturated aqueous solution, quantified by an external calibration curve of the compound dissolved in DMSO. The solubility (mg/L) is measured at pH 7.4, at room temperature and the final concentration of DMSO in the sample solution is 1%.
The samples were prepared from 10 mM DMSO stock solutions. For each compound under investigation, a volume (9 μL) of the DMSO stock solution is transferred from the DMSO stock solution into 891 μL of buffer solution (system solution from pION inc.) in a 96 deep well plate, which equates to approximately 1% DMSO, using the Packard Multiprobe II robot liquid handling system. The pH of the buffer is manually adjusted at pH 7.4 by adding NaOH. This procedure is done in duplicate for each sample. After shaking for 24 h on a vortex mixer (Heidolph, Titramax 101) at 450 rpm and at room temperature (21-23° C.), 300 uL of the incubated sample is transferred from the deep well plate to a filter plate (PVDF, 0.45 um) on a vacuum manifold. To the filtrate (150 uL) 1-propanol (50 uL) is added to suppress precipitation and this solution is then analysed by UPLC. The solubility is determined using the calibration line previously prepared.
Preparation of the Standards and Built up of a Calibration Line
The calibration line is built with different concentrations of the test compound (standards), prepared from the same 10 mM DMSO stock solution. A volume (7 uL) from the same DMSO stock solution was diluted with DMSO (273 uL) leading to a solution with concentration of 0.25 mM. From this solution, three different injection volumes (0.2, 1, 1.8 uL) were injected on UPLC. The respective peak areas are plotted against amount of compound to build up the calibration line. The calibration line is used to determine the amount of dissolved compound in each sample, selecting the injection that gave peak areas closest to the peak area range of the calibration standards.

[2] = MK2 IMAP assay, 1 μM ATP, 30 min pre-incubation, 2 h room temperature, read-out: pEC50 value (converted)
[3] = pH 7.4, room temperature, about 1% DMSO, 24 h shaking, read-out: solubility
[4] = Table 1, compound of Formula (I) with spiro ring, MK2 IMAP assay, read-out: pEC50, Formula (I) (converted)
[5] = Table 1, compound of Formula (I) with spiro ring, pH 7.4, read-out: Solubility pH 7.4 (mg/L), Formula (I)
[6] = Table 1, comparison compound of Formula (XV) without spiro ring, pH 7.4, read-out: Solubility pH 7.4 (mg/L), Formula (XV)
[7] = Table 2, compound of Formula (I) with amine-containing spiro ring, MK2 IMAP assay
[8] = Table 2, compound of Formula (I) with amine-containing spiro ring, pH 7.4, read-out: Solubility pH 7.4 (mg/L), Formula (I)

SMILES | EC50 (MK2 enzyme; [2]) [nM] | solubility at 24 h [1, 3] [mg/L] | other results
O=C(Nc1nccc(-c2cc3c([nH]2)C2(CCCNC2)CNC3=O)n1)c1ccc(C(F)(F)F)cc1 (stereo not shown) [Example 13—1, N-(4-(4′-oxo-1′,4′,5′,6′-tetrahydrospiro[piperidine-3,7′-pyrrolo[3,2-c]pyridine]-2′-yl)pyrimidin-2-yl)-4-(trifluoromethyl)benzamide] | 31.6 to 316 | 20 to 50 (≈ 42.5 to 106 µM) | 
O=C1NCC2(CCNCC2)c2[nH]c(-c3ccnc(-c4ccc(C5CCCCC5)cc4)n3)cc21 [1—18, 2′-(2-(4-cyclohexylphenyl)pyrimidin-4-yl)-5′,6′-dihydrospiro[piperidine-4,7′-pyrrolo[3,2-c]pyridin]-4′(1′H)-one] | 31.6 to 316 | 20 to 50 (≈ 45.3 to 113 µM) | 
O=C1NCC2(CCNCC2)c2[nH]c(-c3ccnc(-c4ccccc4F)n3)cc21 [16_4 Formula (I)] |  |  | EC50 (MK2 enzyme; [4]): 31.6 nM; solubility at 24 h [1, 5]: 36 mg/L
O=C1NCC2(CCNCC2)c2[nH]c(-c3ccnc(-c4cccc(OC(F)(F)F)c4)n3)cc21 [1—16, 2′-(2-(3-(trifluoromethoxy)phenyl)pyrimidin-4-yl)-5′,6′-dihydrospiro[piperidine-4,7′-pyrrolo[3,2-c]pyridin]-4′(1′H)-one] | 3.16 to 31.6 | ≥ 50 | 
O=C1NCC2(CCOCC2)c2[nH]c(-c3ccnc(-c4cnc5ccccc5c4)n3)cc21 [17_2 Formula (XVI)] |  |  | EC50 (MK2 enzyme; Table 2, comparison compound of Formula (XVI), spiro ring without amine, MK2 IMAP assay, read-out: pEC50, Formula (XVI) (converted)): 316 nM; solubility at 24 h ([1]; Table 2, comparison compound of Formula (XVI), spiro ring without amine, pH 7.4, read-out: Solubility pH 7.4 (mg/L), Formula (XVI)): 3 mg/L
COc1cncc(-c2nccc(-c3cc4c([nH]3)C3(CCNCC3)CNC4=O)n2)c1 [1—3, 2′-(2-(5-methoxypyridin-3-yl)pyrimidin-4-yl)-5′,6′-dihydrospiro[piperidine-4,7′-pyrrolo[3,2-c]pyridin]-4′(1′H)-one] | 3.16 to 31.6 | 20 to 50 (≈ 51.2 to 128 µM) | 
O=C1NCCc2[nH]c(-c3ccnc(-c4cccc(F)c4)n3)cc21 [16_3 Formula (XV)] |  |  | EC50 (MK2 enzyme): 501 nM; solubility at 24 h [1, 6]: 32 mg/L
O=C1NCC2(CCNCC2)c2[nH]c(-c3ccnc(-c4ccc5c(c4)OCO5)n3)cc21 [16_5 Formula (I)] |  |  | pEC50, Formula (I) (MK2 enzyme; Table 1, compound of Formula (I) with spiro ring, MK2 IMAP assay): 8.4; solubility at 24 h [1, 5]: 37 mg/L
O=C1NCC2(CCNCC2)c2[nH]c(-c3ccnc(-c4cccc(F)c4)n3)cc21 [1—5, 2′-(2-(3-fluorophenyl)pyrimidin-4-yl)-5′,6′-dihydrospiro[piperidine-4,7′-pyrrolo[3,2-c]pyridin]-4′(1′H)-one] | 3.16 to 31.6 | 20 to 50 (≈ 53 to 132 µM) | 
NC(=O)c1cccc(-c2nccc(-c3cc4c([nH]3)C3(CCNCC3)CNC4=O)n2)c1 [1—29, 3-(4-(4′-oxo-1′,4′,5′,6′-tetrahydrospiro[piperidine-4,7′-pyrrolo[3,2-c]pyridine]-2′-yl)pyrimidin-2-yl)benzamide] | 3.16 to 31.6 | ≥ 50 | 
CCC(=O)Nc1ccc(-c2nccc(-c3cc4c([nH]3)C3(CCNCC3)CNC4=O)n2)cn1 [1—9, N-(5-(4-(4′-oxo-1′,4′,5′,6′-tetrahydrospiro[piperidine-4,7′-pyrrolo[3,2-c]pyridine]-2′-yl)pyrimidin-2-yl)pyridin-2-yl)propionamide] | 3.16 to 31.6 | ≥ 50 | 
O=C1NCC2(CCNC2)c2[nH]c(-c3ccnc(-c4cc5ccccc5o4)c3)cc21 (stereo not shown) [6—5, 2′-(2-(benzofuran-2-yl)pyridin-4-yl)-5′,6′-dihydrospiro[pyrrolidine-3,7′-pyrrolo[3,2-c]pyridin]-4′(1′H)-one] | 3.16 to 31.6 | ≥ 50 | 
O=C1NCC2(CCNCC2)c2[nH]c(-c3ccnc(-c4nc5ccccc5s4)c3)cc21 [Example 9—1, 2′-(2-(benzo[d]thiazol-2-yl)pyridin-4-yl)-5′,6′-dihydrospiro[piperidine-4,7′-pyrrolo[3,2-c]pyridin]-4′(1′H)-one] | 3.16 to 31.6 | ≥ 50 | 
CCN1CCC2(CC1)CNC(=O)c1cc(-c3ccnc(-c4cc5ccccc5o4)n3)[nH]c12 [2—2, 2′-(2-(benzofuran-2-yl)pyrimidin-4-yl)-1-ethyl-5′,6′-dihydrospiro[piperidine-4,7′-pyrrolo[3,2-c]pyridin]-4(1′H)-one] |  | ≥ 50 | EC50 (MK2 enzyme): 31.6 to 316 nM
O=C1NCC2(CCNCC2)c2[nH]c(-c3ccnc(-c4cc5ccccc5o4)n3)cc21 [Example 1—1, 2′(2-(benzofuran-2-yl)pyrimidin-4-yl)-5′,6′-dihydrospiro[piperidine-4,7′-pyrrolo[3,2-c]pyridin]-4′(1′H)-one] | 3.16 to 31.6 | 20 to 50 (≈ 50.1 to 125 µM) | 
CC(=O)c1cccc(-c2nccc(-c3cc4c([nH]3)C3(CCNCC3)CNC4=O)n2)c1 [1—30, 2′-(2-(3-acetylphenyl)pyrimidin-4-yl)-5′,6′-dihydrospiro[piperidine-4,7′-pyrrolo[3,2-c]pyridin]-4′(1′H)-one] | 3.16 to 31.6 | ≥ 50 | 
O=C1NCCc2[nH]c(-c3ccnc(-c4ccc5c(c4)OCO5)n3)cc21 [16_5 Formula (XV)] |  |  | EC50 (MK2 enzyme; Table 1, comparison compound of Formula (XV) without spiro ring, MK2 IMAP assay, read-out: pEC50, Formula (XV) (converted)): 126 nM; solubility at 24 h [1, 6]: 5 mg/L
O=C1NCC2(CCNCC2)c2[nH]c(-c3ccnc(-c4ccc(Cl)c(Cl)c4)n3)cc21 [Example 1—13, 2′-(2-(3,4-dichlorophenyl)pyrimidin-4-yl)-5′,6′-dihydrospiro[piperidine-4,7′-pyrrolo[3,2-c]pyridin]-4′(1′H)-one] | 3.16 to 31.6 | ≥ 50 | 
O=C1NCC2(CCNCC2)c2[nH]c(-c3nc(-c4ccc(Cl)cc4F)ncc3F)cc21 [4—5, 2′-(2-(4-chloro-2-fluorophenyl)-5-fluoropyrimidin-4-yl)-5′,6′-dihydrospiro[piperidine-4,7′-pyrrolo[3,2-c]pyridin]-4′(1′H)-one] | 3.16 to 31.6 | ≥ 50 | 
O=C1NCC2(CCNCC2)c2[nH]c(-c3ccnc(-c4ccc5c(c4)OCO5)n3)cc21 [17_1 Formula (I)] |  |  | pEC50, Formula (I) (MK2 enzyme; [7]): 8.4; solubility at 24 h [1, 8]: 37 mg/L
O=C1NCC2(CCNCC2)c2[nH]c(-c3ccnc(-c4cnc5ccccc5c4)c3)cc21 [16_1 Formula (I)] |  |  | EC50 (MK2 enzyme; [4]): 1.26 nM; solubility at 24 h [1, 5]: 35 mg/L
O=C1NCC2(CCNCC2)c2[nH]c(-c3ccnc(-c4cnc5ccccc5c4)n3)cc21 [17_2 Formula (I)] |  |  | pEC50, Formula (I) (MK2 enzyme; [7]): 8.2; solubility at 24 h [1, 8]: 23 mg/L
O=C1NCC2(CCNCC2)c2[nH]c(-c3ccnc(-c4nccs4)n3)cc21 [9—3, 2′-(2-(thiazol-2-yl)pyrimidin-4-yl)-5′,6′-dihydrospiro[piperidine-4,7′-pyrrolo[3,2-c]pyridin]-4′(1′H)-one] | 31.6 to 316 | ≥ 50 | 
